Where a name gives a salt, the structure may show the parent alone. Read-outs that look alike come from different tables or passages of the source.

The target of this assay is ROCK2 (Homo sapiens, UniProt O75116). In words: ROCK2 kinase inhibition assay (LABCHIP 3000 Reader, FITC peptide substrate).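 Further: rho kinase reaction read by separating phosphorylated from unphosphorylated peptide on chip, with inhibition of kinase activity computed per concentration across a dose-response series.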
The mark [1] stands for this setting: read-out: ROCK2 Activity (ROCK2 IC50), 5 μM ATP, 1.5 μM peptide substrate, pH 7.5.

Sequence of ROCK2 (O75116 whole entry, species assumed): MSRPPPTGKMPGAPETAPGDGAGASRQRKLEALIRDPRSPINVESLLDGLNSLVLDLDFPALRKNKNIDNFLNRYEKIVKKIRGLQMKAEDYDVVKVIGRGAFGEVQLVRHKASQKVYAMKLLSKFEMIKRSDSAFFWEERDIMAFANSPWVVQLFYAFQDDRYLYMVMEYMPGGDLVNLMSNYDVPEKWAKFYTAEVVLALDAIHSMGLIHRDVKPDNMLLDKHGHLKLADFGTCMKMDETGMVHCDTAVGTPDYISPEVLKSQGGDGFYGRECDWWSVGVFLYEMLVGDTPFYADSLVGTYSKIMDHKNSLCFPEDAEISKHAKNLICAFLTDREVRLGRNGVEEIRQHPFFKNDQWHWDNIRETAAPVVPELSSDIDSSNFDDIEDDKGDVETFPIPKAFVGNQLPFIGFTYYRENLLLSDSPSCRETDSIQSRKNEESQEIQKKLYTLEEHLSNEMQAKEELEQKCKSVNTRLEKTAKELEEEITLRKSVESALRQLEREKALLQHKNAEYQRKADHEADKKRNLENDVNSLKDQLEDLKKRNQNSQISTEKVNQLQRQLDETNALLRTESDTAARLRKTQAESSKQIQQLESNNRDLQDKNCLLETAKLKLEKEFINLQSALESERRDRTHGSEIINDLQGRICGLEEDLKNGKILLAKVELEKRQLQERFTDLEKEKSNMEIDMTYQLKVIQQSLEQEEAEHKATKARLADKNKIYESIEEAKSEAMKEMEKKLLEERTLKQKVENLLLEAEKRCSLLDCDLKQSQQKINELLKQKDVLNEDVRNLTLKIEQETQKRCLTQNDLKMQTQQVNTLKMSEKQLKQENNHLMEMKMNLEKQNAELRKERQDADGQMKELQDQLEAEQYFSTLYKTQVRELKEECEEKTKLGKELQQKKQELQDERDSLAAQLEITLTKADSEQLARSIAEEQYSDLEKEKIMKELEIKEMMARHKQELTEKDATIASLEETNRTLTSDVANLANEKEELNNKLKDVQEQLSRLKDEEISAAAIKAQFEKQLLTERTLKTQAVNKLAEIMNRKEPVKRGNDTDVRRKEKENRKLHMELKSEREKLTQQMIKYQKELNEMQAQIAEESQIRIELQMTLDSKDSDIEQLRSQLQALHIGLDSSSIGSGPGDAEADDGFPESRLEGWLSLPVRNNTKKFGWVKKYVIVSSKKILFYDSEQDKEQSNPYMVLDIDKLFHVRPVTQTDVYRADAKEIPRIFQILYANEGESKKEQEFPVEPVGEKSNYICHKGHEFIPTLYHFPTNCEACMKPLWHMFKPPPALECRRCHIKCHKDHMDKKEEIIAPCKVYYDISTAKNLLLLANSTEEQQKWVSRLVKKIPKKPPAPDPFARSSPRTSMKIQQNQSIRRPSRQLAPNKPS

By IC50 is commonly meant the concentration needed to halve the response being measured. For “2-(((aR)-6-(1- (pyridin-2-yl)-5- (trifluoromethyl)- 1H-pyrazole-4- carboxamido) spiro[3.3]heptan-2- yl)oxy) nicotinamide [Example 129]”, the IC50 under setting [1] fell in the range of 0.25 to 2.5 µM.

For “2-(((aR)-6-(3-(2- methylthiazol-4- yl)benzamido)spiro [3.3]heptan-2- yl)oxy)nicotinamide, trifluoroacetate [Example 133]”, the IC50 under setting [1] was in the range of 0.005 to 0.05 µM.

As to “2-(((aR)-6-(3-cyano- 5-(1-methyl- 1H-pyrazol-4- yl)benzamido) spiro[3.3]heptan-2- yl)oxy)nicotinamide [Example 195]”, under setting [1], the IC50 is less than 0.005 µM.

On to “2-((aR)-6- (1-methyl-3- (trifluoromethyl)- 1H-pyrazole- 5-carboxamido) spiro[3.3]heptan- 2-yl)oxy) nicotinamide, trifluoroacetate [Example 86]”, for which, under setting [1], the IC50 lay within 0.05 to 0.25 µM.

“2-((aR)-6- (1-phenyl-1H- pyrazole-4- carboxamido) spiro[3.3]- heptan-2-yl)oxy) nicotinamide, trifluoroacetate [Example 73]”: the IC50 under setting [1] was 0.005 to 0.05 µM.

With `CC(C)(O)COc1ccc2c(C(=O)N[C@H]3CC4(C3)C[C@H](Oc3ncccc3C(N)=O)C4)cnn2c1N1CCCCC1=O` (atropisomer, axis not shown; (aR)) [Example 69, N-((aR)-6-((3-carbamoylpyridin-2-yl)oxy)spiro[3.3]heptan-2-yl)-6-(2-hydroxy-2-methylpropoxy)-7-(2-oxopiperidin-1-yl)pyrazolo[1,5-a]pyridine-3-carboxamide, trifluoroacetate], the IC50 fell in the range of 0.05 to 0.25 µM.

In turn, `[H][C@]1(Oc2cc(-c3cnn(C)c3)ccc2C(N)=O)C[C@@]2(C[C@H](NC(=O)c3cnn4cc(OCC(C)(C)O)ccc34)C2)C1` (single isomer, unassigned) [Example 276] registered an IC50 of 0.005 to 0.05 µM.

For the compound `Cc1c(C(=O)NC2CC3(C2)CC(Oc2ccccc2C(N)=O)C3)cnn1-c1ccccc1` (centres unmarked) [Example 1, N-(6-(2-carbamoylphenoxy)spiro[3.3]heptan-2-yl)-5-methyl-1-phenyl-1H-pyrazole-4-carboxamide], the IC50 fell in the range of 0.05 to 0.25 µM.

Compound `Cn1nc(C(=O)NC2CC3(C2)CC(Oc2ccccc2C(N)=O)C3)c2ccccc21` (centres unmarked) [Example 2, N-(6-(2-carbamoylphenoxy)spiro[3.3]heptan-2-yl)-1-methyl-1H-indazole-3-carboxamide] gave an IC50 of 0.05 to 0.25 µM.

In the case of `CC(C)(O)COc1ccc2c(C(=O)NC3CC4(C3)CC(Oc3ccccc3C(N)=O)C4)cnn2c1` (centres unmarked) [Example 3, N-(6-(2-carbamoylphenoxy)spiro[3.3]heptan-2-yl)-6-(2-hydroxy-2-methylpropoxy)pyrazolo[1,5-a]pyridine-3-carboxamide], the IC50 fell in the range of 0.005 to 0.05 µM.

`NC(=O)c1ccccc1OC1CC2(CC(NC(=O)c3cnn4cc(OC5CCOC5)ccc34)C2)C1` (centres unmarked) [Example 4, N-(6-(2-carbamoylphenoxy)spiro[3.3]heptan-2-yl)-6-((tetrahydrofuran-3-yl)oxy)pyrazolo[1,5-a]pyridine-3-carboxamide] returned an IC50 of 0.005 to 0.05 µM.

Compound `COc1cc(C(=O)NC2CC3(C2)CC(Oc2ccccc2C(N)=O)C3)ccc1-c1cn[nH]c1` (centres unmarked) [Example 5, N-(6-(2-carbamoylphenoxy)spiro[3.3]heptan-2-yl)-3-methoxy-4-(1H-pyrazol-4-yl)benzamide] yielded an IC50 of 0.05 to 0.25 µM.

For `CC(C)(O)COc1ccc2c(C(=O)NC3CC4(C3)CC(Oc3ncccc3C(N)=O)C4)cnn2c1` (centres unmarked) [Example 6, N-(6-((3-carbamoylpyridin-2-yl)oxy)spiro[3.3]heptan-2-yl)-6-(2-hydroxy-2-methylpropoxy)pyrazolo[1,5-a]pyridine-3-carboxamide], the IC50 is less than 0.005 µM.

For the compound `CC(C)(O)COc1ccc2c(C(=O)NC3CC4(C3)CC(Oc3nccnc3C(N)=O)C4)cnn2c1` (centres unmarked) [Example 7, N-(6-((3-carbamoylpyrazin-2-yl)oxy)spiro[3.3]heptan-2-yl)-6-(2-hydroxy-2-methylpropoxy)pyrazolo[1,5-a]pyridine-3-carboxamide], the IC50 is 0.25 to 2.5 µM.

For the compound `CC(C)(O)COc1ccc2c(C(=O)NC3CC4(C3)CC(Oc3ncncc3C(N)=O)C4)cnn2c1` (centres unmarked) [Example 8, N-(6-((5-carbamoylpyrimidin-4-yl)oxy)spiro[3.3]heptan-2-yl)-6-(2-hydroxy-2-methylpropoxy)pyrazolo[1,5-a]pyridine-3-carboxamide], the half-inhibitory concentration (IC50) is 0.05 to 0.25 µM.

Consider `NC(=O)c1cccnc1OC1CC2(CC(NC(=O)c3cnn4cc(OC(CF)CF)ccc34)C2)C1` (centres unmarked) [Example 9, N-(6-((3-carbamoylpyridin-2-yl)oxy)spiro[3.3]heptan-2-yl)-6-((1,3-difluoropropan-2-yl)oxy)pyrazolo[1,5-a]pyridine-3-carboxamide], for which the IC50 was in the range of 0.005 to 0.05 µM.

The compound `NC(=O)c1cccnc1OC1CC2(CC(NC(=O)c3cnn4cc(OCCC(F)(F)F)ccc34)C2)C1` (centres unmarked) [Example 10, N-(6-((3-carbamoylpyridin-2-yl)oxy)spiro[3.3]heptan-2-yl)-6-(3,3,3-trifluoropropoxy)pyrazolo[1,5-a]pyridine-3-carboxamide] had an IC50 of 0.005 to 0.05 µM.

For the compound `NC(=O)c1cccnc1OC1CC2(CC(NC(=O)c3cnn4cc(OC5CCOCC5)ccc34)C2)C1` (centres unmarked) [Example 11, N-(6-((3-carbamoylpyridin-2-yl)oxy)spiro[3.3]heptan-2-yl)-6-((tetrahydro-2H-pyran-4-yl)oxy)pyrazolo[1,5-a]pyridine-3-carboxamide], the half-inhibitory concentration (IC50) is 0.005 to 0.05 µM.

In the case of `NC(=O)c1cccnc1OC1CC2(CC(NC(=O)N3CCc4ccccc43)C2)C1` (centres unmarked) [Example 12, N-(6-((3-carbamoylpyridin-2-yl)oxy)spiro[3.3]heptan-2-yl)indoline-1-carboxamide], the half-inhibitory concentration (IC50) lay in the range of 0.05 to 0.25 µM.

In turn, `N#Cc1ccc2c(c1)CN(C(=O)NC1CC3(C1)CC(Oc1ncccc1C(N)=O)C3)C2` (centres unmarked) [Example 13, N-(6-((3-carbamoylpyridin-2-yl)oxy)spiro[3.3]heptan-2-yl)-5-cyanoisoindoline-2-carboxamide] yielded an IC50 of 0.05 to 0.25 µM.

In turn, `NC(=O)c1ccccc1OC1CC2(CC(NC(=O)OCc3ccccc3)C2)C1` [Example 14, benzyl ((aR)-6-(2-carbamoylphenoxy)spiro[3.3]heptan-2-yl)carbamate] displayed an IC50 of 0.25 to 2.5 µM.

The compound `[H][C@]1(Oc2ccccc2C(N)=O)C[C@@]2(C[C@H](NC(=O)c3cnn4c(C5CC5)c(OCC(C)(C)O)ccc34)C2)C1` (stereo partly drawn) [Example 15, N-((aR)-6-(2-carbamoylphenoxy)spiro[3.3]heptan-2-yl)-7-cyclopropyl-6-(2-hydroxy-2-methylpropoxy)pyrazolo[1,5-a]pyridine-3-carboxamide] returned an IC50 of less than 0.005 µM.

Take `[H][C@]1(Oc2ccccc2C(N)=O)C[C@@]2(C[C@H](NC(=O)c3cnn4cc(OCC(C)(C)O)ccc34)C2)C1` (stereo partly drawn) [Example 16, N-((aR)-6-(2-carbamoylphenoxy)spiro[3.3]heptan-2-yl)-6-(2-hydroxy-2-methylpropoxy)pyrazolo[1,5-a]pyridine-3-carboxamide]: the IC50 is less than 0.005 µM.

Compound `COc1ccc2c(c1)CCN2C(=O)NC1CC2(C1)CC(Oc1ncccc1C(N)=O)C2` [Example 17, N-((aR)-6-((3-carbamoylpyridin-2-yl)oxy)spiro[3.3]heptan-2-yl)-5-methoxyindoline-1-carboxamide] returned a concentration for half-maximal inhibition (IC50) of 0.05 to 0.25 µM.

For `NC(=O)c1ccccc1O[C@H]1CC2(C[C@H](NC(=O)c3cnc4cc(OCCC(F)(F)F)ccn34)C2)C1` (stereo partly drawn) [Example 18, N-[(aR)-6-(2-carbamoylphenoxy)spiro[3.3]heptan-2-yl]-7-(3,3,3-trifluoropropoxy)imidazo [1,2-a]pyridine-3-carboxamdie], the IC50 is less than 0.005 µM.

`CC(C)(O)COc1ccc2c(C(=O)N[C@H]3CC4(C3)C[C@H](Oc3ccccc3C(N)=O)C4)cnn2c1CCC(F)(F)F` (stereo partly drawn) [Example 19, N-[(aR)-6-(2-carbamoylphenoxy)spiro[3.3]heptan-2-yl]-6-(2-hydroxy-2-methylpropoxy)-7-(3,3,3-trifluoropropyl)pyrazolo [1,5-a]pyridine-3-carboxamide] gave an IC50 of less than 0.005 µM.

Consider `NC(=O)c1ccccc1O[C@H]1CC2(C[C@H](NC(=O)c3cnn4ccc(OCCN5CCOCC5)cc34)C2)C1` (stereo partly drawn) [Example 20, N-[(aR)-6-(2-carbamoylphenoxy)spiro[3.3]heptan-2-yl]-5-[2-(morpholin-4-yl)ethoxy]pyrazolo[1,5-a]pyridine-3-carboxamide], for which the IC50 was in the range of 0.005 to 0.05 µM.

The compound `NC(=O)c1ccccc1O[C@H]1CC2(C[C@H](NC(=O)c3cnn4cc(OCCN5CCCC5)ccc34)C2)C1` (stereo partly drawn) [Example 21, N-[(aR)-6-(2-carbamoylphenoxy)spiro[3.3]heptan-2-yl]-6-[2-(pyrrolidin-1-yl)ethoxy]pyrazolo[1,5-a]pyridine-3-carboxamide] gave an IC50 of 0.005 to 0.05 µM.

For `NC(=O)c1ccccc1O[C@H]1CC2(C[C@H](NC(=O)c3cnn4cc(OCC(F)F)ccc34)C2)C1` (stereo partly drawn) [Example 22, N-[(aR)-6-(2-carbamoylphenoxy)spiro[3.3]heptan-2-yl]-6-(2,2-difluoroethoxy)pyrazolo [1,5-a]pyridine-3-carboxamide], the IC50 lay in the range of 0.005 to 0.05 µM.

As for `NC(=O)c1ccccc1O[C@H]1CC2(C[C@H](NC(=O)c3cnn4cc(N5CCC(F)(F)C5)ccc34)C2)C1` (stereo partly drawn) [Example 23, N-[(aR)-6-(2-carbamoylphenoxy)spiro[3.3]heptan-2-yl]-6-(3,3-difluoropyrrolidin-1-yl)pyrazolo[1,5-a]pyridine-3-carboxamide], the IC50 is less than 0.005 µM.

With `NC(=O)c1ccccc1O[C@H]1CC2(C[C@H](NC(=O)c3cnn4cc(OC(F)F)ccc34)C2)C1` (stereo partly drawn) [Example 24, N-[(aR)-6-(2-carbamoylphenoxy)spiro[3.3]heptan-2-yl]-6-(difluoromethoxy)pyrazolo [1,5-a]pyridine-3-carboxamide], the IC50 is 0.005 to 0.05 µM.

`NC(=O)c1ccccc1O[C@H]1CC2(C[C@H](NC(=O)c3cnc4cc(N5CCC(F)(F)C5)ccn34)C2)C1` (stereo partly drawn) [Example 25, N-[(aR)-6-(2-carbamoylphenoxy)spiro[3.3]heptan-2-yl)-7-(3,3-difluoropyrrolidin-1-yl)imidazo[1,2-a]pyridine-3-carboxamide]: the IC50 is less than 0.005 µM.

The record behind these values is US10829501B2 (BRISTOL-MYERS SQUIBB COMPANY, priority 2016, dated 2020).
